In the NIST ThermoML archive (doi:10.1016/j.jct.2008.06.003):
± gives the expanded uncertainty stated by the source.

Tests used:
[1] = Crystal; for molar enthalpy of sublimation: 298.15 K, Static calorimetry
[2] = Molar enthalpy of transition or fusion; details: Crystal; DSC

molar enthalpy of sublimation [1] [kcal/mol] | Normal melting temperature ([1]; DTA) [°C] | Molar enthalpy of transition or fusion [2] [kcal/mol] | SMILES
25.5 ± 0.406 | 89.2 ± 0.53 | 6.88 ± 0.151 | OCC1COc2ccccc2O1 (centres undefined) [1,4-benzodioxane-2-methanol]
28.2 ± 1 |  |  | O=C(O)C1COc2ccccc2O1 (centres undefined) [1,4-benzodioxan-2-carboxylic acid]
